Laboratory results from patent US20030108980A1, “Bioluminescent methods for direct visual detection of environmental compounds” (priority 2000, published 2003).

Assays:
[1] = test system: E. coli ARL3; assay: Detection of mercury using bioluminescence, strain ARL3; assay type: cell-based; details: 500 μg HgCl2/L
Experimental: (§1) Strains ARL1, ARL2, and ARL3 were screened for bioluminescence production in the presence of HgCl2. Each strain was grown in LB medium to an OD546nm of 0.35 at which time 500 μg HgCl2/L was added. Induction of bioluminescence in the presence of mercury was rapid (FIG. 5) with significant light produced in 30 minutes. Strain ARL2 had higher background bioluminescence (˜31,486 cps) in the absence of mercury relative to strain ARL1 and ARL3 (˜13,798 and ˜12,762 respectively). After 20 minutes, strain ARL2 produced approximately twice the amount of bioluminescence ((˜1,791,560 cps) relative to strains ARL1 and ARL3 (˜917.496 and 825,240 cps respectively).

[2] = test system: E. coli ARL1; assay: Detection of mercury using bioluminescence, strain ARL1; assay type: cell-based; details: 500 μg HgCl2/L
Experimental: as §1

[3] = test system: E. coli ARL2; assay: Detection of mercury using bioluminescence, strain ARL2; assay type: cell-based; details: 500 μg HgCl2/L
Experimental: as §1

[4] = test system: P. fluorescens 5RL; details: salicylate 10 and 100 ppm, cellulose filter strips, room temperature
Experimental: Strips were removed and excess fluid was drained. These filter strips with cells were placed on a second set of strips impregnated with salicylic acid (10 and 100 ppm).
Briefly, a 100 μl sample of an uninduced culture of Pseudomonas fluorescens 5RL was placed in a sterile petri dish containing LB broth (10 ml) supplemented with tetracycline (14 μg/mI).

[5] = test system: E. coli EC100; details: cellulose strips
[6] = test system: P. putida TVA8; assay: Prototype test strip, toluene bioreporter; assay type: cell-based; details: 10 ppm toluene in mixture
From the text: (§2) 1. The bottom layer is absorbent Whatman filter paper.
(§3) 2. The second layer is an impermeable water barrier. Currently we are using aluminum foil.
(§4) 4. The fourth layer is the styrene sheet. […] There is one circle for each bioreporter.
(§5) 5. The last layer is the encapsulated cells.
(§6) Water will be wicked up the filter paper.
[…]. […] […].

[7] = test system: P. putida TVA8; details: cited from earlier work
[8] = test system: P. fluorescens 5RL; assay: Prototype test strip, naphthalene/salicylate bioreporter; assay type: cell-based; details: 5 ppm naphthalene in mixture with 1 ppm Hg2+ and 10 ppm toluene
From the text: as §2, §3, §4, §5, §6

[9] = test system: P. fluorescens 5RL (pUTK21); details: cited from earlier work

[Cl][Hg][Cl] [HgCl2]
time to significant light production [1]: 30 min | bioluminescence after 20 minutes ([1]; LB medium, OD546nm 0.35): ~825,240 cps | time to significant light production [2]: 30 min | time to significant light production [3]: 30 min | bioluminescence after 20 minutes ([3]; LB medium, OD546nm 0.35): ~1,791,560 cps

O=C([O-])c1ccccc1O.[Na+] [salicylate, sodium salicylate]
time to light visible to the naked eye [4]: less than 60 min | time to visible light after contact of test strips with inducer solution [5]: less than one hour

Cc1ccccc1 [Toluene]
visibility of bioluminescence on test strip [6]: only detectable with a photomultiplier | Response Time [7]: 25 ppm

c1ccc2ccccc2c1 [Naphthalene]
visibility of bioluminescence on test strip [8]: visible to the naked eye | Lower Detection Limits [9]: ˜50 ppb | Response Time [9]: ˜1 hour
